From patent US20150057344A1, “PELTATIN FOR THE TREATMENT OF CHRONIC INFLAMMATORY DISORDERS” (priority 2012, published 2015)

Key:
PPARα = assay: hPPARa reporter bioassay (Gal4-hPPAR / UAS-luciferase) in HeLa cells; format: cell-based; conditions: human HeLa cells, dose response
Description: (§1) In more detail, when PPARs fix their ligands they are able to shuttle from cytoplasm to the nucleus of HeLa cells. Then, PPARs heterodimerize with co-receptors called Retinoid-X-Receptors (RXR). Heterodimeric transcription factors PPAR/RXR are responsible for PPARs-mediated transcriptional program. In this system, hPPARs are fused to Gal4. Gal4 is a yeast transcription activator which specifically binds a Gal4 responsive element so-called Upstream Activation Sequence (UAS)— this short section in a promoter region strongly activates gene transcription. Therefore, cotransfection of Gal4-hPPARs with UAS-luciferase constructs allows identification hPPARs agonists. Agonists will stimulate luciferase transcription resulting in the formation of a functional enzyme that converts substrate to detectable signal by a chemiluminescent reaction.
(§2) The assays detect binding of a ligand to the hPPAR of interest by directly measuring luciferase activity. When PPARs fixe their ligands they are able to shuttle from cytoplasm to the nucleus of HeLa cells. Then, PPARs heterodimerize with co-receptors called Retinoid-X-Receptors (RXR). […]
(§3) An edible plant fraction library was tested for PPARs agonist activity and toxicity. Then relevant plant fractions were further analyzed and bioactive(s) characterized and validated with the same hPPARa, hPPARg or hPPARd reporter bioassays. […]

PPARγ = assay: hPPARg reporter bioassay (Gal4-hPPAR / UAS-luciferase) in HeLa cells; format: cell-based; conditions: human HeLa cells, dose response
Description: as §1, §2, §3

HeLa cells = assay: Cellular toxicity, standard method, compared to untreated cells; format: cell-based, human; conditions: up to highest dose used
Protocol: The AC50 (upper part of the insert) and the maximum % activation (lower part of the insert) are given. Cellular toxicity was also assessed with standard method compared to untreated cells and shown in % of toxicity.
An edible plant fraction library was tested for PPARs agonist activity and toxicity. Then relevant plant fractions were further analyzed and bioactive(s) characterized and validated with the same hPPARa, hPPARg or hPPARd reporter bioassays. The reporter bioassay we used in order to identify anti-inflammatory plant properties targeted activation of human PPARs in human HeLa cells (as described in the FIG. 1). All isolated bioactives were tested in a dose response manner in duplicate. Assays were repeated 3-4 times. Shown are mean values obtained. Therefore specificity (for all the three known human PPAR receptors namely PPARα, PPARd and PPARg) and efficacy (full agonist i.e. % maximal activity >100% or partial agonist i.e. % maximal activity <100%) were tested (FIG. 2-4).

Row | SMILES | agonistic activity on PPARα (PPARα) | agonistic activity on PPARγ (PPARγ) | cellular toxicity (% of toxicity) (HeLa cells; FIG. 2, alongside PPARα activation dose-response) | cellular toxicity (% of toxicity) (HeLa cells; FIG. 3, alongside PPARg activation dose-response) | cellular toxicity (% of toxicity) (HeLa cells; FIG. 4, alongside PPARd activation dose-response)
1 | COc1cc([C@@H]2c3cc4c(cc3[C@H](O)[C@H]3COC(=O)[C@H]23)OCO4)cc(OC)c1OC [podophyllotoxin] | dual agonistic activity | dual agonistic activity | – | – | –
2 | COc1cc([C@@H]2c3cc4c(c(O)c3C[C@H]3COC(=O)[C@@H]32)OCO4)cc(OC)c1OC [β-peltatin] | dual agonistic activity | dual agonistic activity | no toxicity was observed | no toxicity was observed | no toxicity was observed
